This experiment has as its target T1, MAGL (Homo sapiens, UniProt Q99685).
T1 sequence (Q99685 1-303): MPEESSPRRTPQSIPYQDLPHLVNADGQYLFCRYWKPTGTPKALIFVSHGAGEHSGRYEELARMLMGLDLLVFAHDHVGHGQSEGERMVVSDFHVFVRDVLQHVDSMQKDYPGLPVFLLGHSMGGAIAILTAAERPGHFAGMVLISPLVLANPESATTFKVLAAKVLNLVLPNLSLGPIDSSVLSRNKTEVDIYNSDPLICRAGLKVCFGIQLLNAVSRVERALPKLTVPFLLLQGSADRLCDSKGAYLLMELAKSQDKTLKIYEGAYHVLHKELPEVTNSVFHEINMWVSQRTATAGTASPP
The experiment in a line: MAGL inhibition, 2-AG assay (hydrolysis of 2-arachidonoylglycerol, arachidonic acid by mass spectrometry). The format is biochemical. The note with it: 2-AG assay (footnote [b]). The method, boiled down: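 Hydrolysis of 8 μM 2-arachidonoylglycerol by […] was run for 30 min at RT after a 15 min compound preincubation, in Tris/EDTA/Tween buffer. Test compounds spanned […]. The product was measured by online SPE-MS/MS (transitions 303.1→259.1 and 311.1→267.0), and activity was derived from the arachidonic acid/d8-arachidonic acid signal ratio.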
A word on the IC50: it is the concentration at which inhibition is half-maximal. A high value points to weaker potency. As to `O=C1CO[C@H]2CCN(C(=O)N3CC(c4ccc(-c5ccc(Cl)cc5F)cc4)C3)C[C@H]2N1` [Example 133, (4aR,8aS)-6-[3-[4-(4-Chloro-2-fluoro-phenyl)phenyl]azetidine-1-carbonyl]-4,4a,5,7,8,8a-hexahydropyrido[4,3-b][1,4]oxazin-3-one], the IC50 was 0.2 nM.

In turn, `O=C1CO[C@H]2CCN(C(=O)N3CC(c4ccc(-c5ccc(F)cc5Cl)cc4)C3)C[C@H]2N1` [Example 134, (4aR,8aS)-6-[3-[4-(2-Chloro-4-fluoro-phenyl)phenyl]azetidine-1-carbonyl]-4,4a,5,7,8,8a-hexahydropyrido[4,3-b][1,4]oxazin-3-one] gave an IC50 of 0.1 nM.

On to `Cc1ccccc1-c1ccc(C2CN(C(=O)N3CC[C@@H]4OCC(=O)N[C@@H]4C3)C2)cc1` [Example 137, (4aR,8aS)-6-(3-(2′-Methyl-[1,1′-biphenyl]-4-yl)azetidine-1-carbonyl)hexahydro-2H-pyrido[4,3-b][1,4]oxazin-3(4H)-one], for which the IC50 amounted to 0.1 nM.

`CC(OC1CN(c2ccc(C3CN(C(=O)N4CC[C@@H]5OCC(=O)N[C@@H]5C4)C3)cc2)C1)C(F)(F)F` (stereo partly drawn) [Example 138, (4aR,8aS)-6-(3-(4-(3-((1,1,1-Trifluoropropan-2-yl)oxy)azetidin-1-yl)phenyl)azetidine-1-carbonyl)hexahydro-2H-pyrido[4,3-b][1,4]oxazin-3(4H)-one] had an IC50 of 1 nM.

`O=C1CO[C@H]2CCN(C(=O)N3CC(c4cccc(Br)c4)C3)C[C@H]2N1` [Example 139, (4aR,8aS)-6-(3-(3-Bromophenyl)azetidine-1-carbonyl)hexahydro-2H-pyrido[4,3-b][1,4]oxazin-3(4H)-one]: the IC50 came out at 27 nM.

Compound `CC(C)(C)c1ccc(C2CN(C(=O)N3CC[C@@H]4OCC(=O)N[C@@H]4C3)C2)cc1` [Example 140, (4aR,8aS)-6-(3-(4-(tert-Butyl)phenyl)azetidine-1-carbonyl)hexahydro-2H-pyrido[4,3-b][1,4]oxazin-3(4H)-one] registered an IC50 of 0.6 nM.

The compound `O=C1CO[C@H]2CCN(C(=O)N3CC(c4ccc(-c5ccccc5)cc4)C3)C[C@H]2N1` [Example 141, (4aR,8aS)-6-[3-(4-Phenylphenyl)azetidine-1-carbonyl]-4,4a,5,7,8,8a-hexahydropyrido[4,3-b][1,4]oxazin-3-one] showed an IC50 of 2 nM.

Consider `O=C1CO[C@H]2CCN(C(=O)N3CC(c4ccc(-c5ccccc5C(F)F)cc4)C3)C[C@H]2N1` [Example 142, (4aR,8aS)-6-[3-[4-[2-(Difluoromethyl)phenyl]phenyl]azetidine-1-carbonyl]-4,4a,5,7,8,8a-hexahydropyrido[4,3-b][1,4]oxazin-3-one], for which half-maximal inhibition (IC50) was put at 0.1 nM.

`Cc1cccc(-c2ccc(C3CN(C(=O)N4CC[C@@H]5OCC(=O)N[C@@H]5C4)C3)cc2)c1` [Example 143, (4aR,8aS)-6-(3-(3′-Methyl-[1,1′-biphenyl]-4-yl)azetidine-1-carbonyl)hexahydro-2H-pyrido[4,3-b][1,4]oxazin-3(4H)-one] yielded an IC50 of 1 nM.

`Cc1ccc(-c2ccc(C3CN(C(=O)N4CC[C@@H]5OCC(=O)N[C@@H]5C4)C3)cc2)cc1` [Example 144, (4aR,8aS)-6-(3-(4′-Methyl-[1,1′-biphenyl]-4-yl)azetidine-1-carbonyl)hexahydro-2H-pyrido[4,3-b][1,4]oxazin-3(4H)-one] showed an IC50 of 1 nM.

As for `O=C1CO[C@H]2CCN(C(=O)N3CC(c4ccc(Cl)nc4)C3)C[C@H]2N1` [Example 145, (4aR,8aS)-6-(3-(6-Chloropyridin-3-yl)azetidine-1-carbonyl)hexahydro-2H-pyrido[4,3-b][1,4]oxazin-3(4H)-one], inhibition was half-maximal at 4300 nM (IC50).

`O=C1CO[C@H]2CCN(C(=O)N3CC(c4ccc(C(F)(F)F)cc4)C3)C[C@H]2N1` [Example 146, (4aR,8aS)-6-(3-(4-(Trifluoromethyl)phenyl)azetidine-1-carbonyl)hexahydro-2H-pyrido[4,3-b][1,4]oxazin-3(4H)-one] registered an IC50 of 34 nM.

The record behind these values is patent US20230117324A1, “OXAZINE MONOACYLGLYCEROL LIPASE (MAGL) INHIBITORS” (Hoffmann-La Roche Inc., priority 2018, published 2023).
